Drawing on ChEMBL document CHEMBL1139617, “Total synthesis and bioactivity of unique flavone desmosdumotin B and its analogs” (2005), this text covers Viability for 11 compounds.

Each structure is given as a SMILES string.

The assay has as its system Raji. The assay is described as follows: Percent viability of Raji cells at concentration of 1000 mol ratio / 20 ng/mL TPA. The assay is classed as functional, Homo sapiens.
Regarding `CC1(C)C(=O)C(C(=O)/C=C/c2ccccc2)=C(O)C(C)(C)C1=O`, the Viability stood at 70%.

For the compound `CC1=C(O)C(C)(C)C(O)=C(C(=O)/C=C/c2ccccc2)C1O` (stereo unspecified), the Viability was found to be 70%.

Take `COC1=C(C)C(=O)c2c(oc(-c3ccccc3)cc2=O)C1(C)C`: the Viability worked out at 70%.

On to `CC(=O)C1=C(O)C(C)(C)C(O)=C(C(C)=O)C1=O`, for which the Viability was 60%.

Turning to `CC(=O)C1=C(O)C(C)(C)C(O)=CC1=O`, the Viability is listed as 60%.

Take `CC(=O)C1=C(O)C(C)=C(O)C(C)(C)C1=O`: the Viability was found to be 60%.

Turning to `CC(=O)c1c(O)cc(O)c(C(C)=O)c1O`, the Viability turned out to be 60%.

As for `CC(=O)C1=C(O)C(C)(C)C(=O)C(C)(C)C1=O`, the Viability was 60%.

On to `CC1=C(O)C(C)(C)C2=C(C(=O)CC(c3ccccc3)O2)C1=O` (stereo unspecified), for which the Viability is given as 70%.

On to `COC1=C(C)C(O)=C(C(=O)/C=C/c2ccccc2)C(=O)C1(C)C` [DESMOSDUMOTIN C], for which the Viability was found to be 70%.

Consider `CC1=C(O)C(C)(C)c2oc(-c3ccccc3)cc(=O)c2C1=O` [DESMOTUMOTIN B], for which the Viability stood at 70%.
